PubChem BioAssay (NCI)
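Cells were grown in 96-well plates and exposed to each compound for 48 hours at five concentrations; endpoints were interpolated linearly between bracketing concentrations, or set to the highest concentration if not reached. TGI denotes the concentration required for complete inhibition of growth.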

Assays:
Assay in all cases: inhibition of tumour cell growth, NCI panel, 48 h
UACC-62 melanoma = test system: UACC-62 melanoma
NCI-H226 lung = test system: NCI-H226 lung
UACC-257 melanoma = test system: UACC-257 melanoma
OVCAR-3 ovarian = test system: OVCAR-3 ovarian
SF-268 CNS = test system: SF-268 CNS
HS 578T breast = test system: HS 578T breast
OVCAR-8 ovarian = test system: OVCAR-8 ovarian
MALME-3M melanoma = test system: MALME-3M melanoma
RXF 393 renal = test system: RXF 393 renal
HT29 colon = test system: HT29 colon
MCF7 breast = test system: MCF7 breast
NCI/ADR-RES ovarian = test system: NCI/ADR-RES ovarian
SK-MEL-5 melanoma = test system: SK-MEL-5 melanoma
T-47D breast = test system: T-47D breast
HCT-116 colon = test system: HCT-116 colon
HCT-15 colon = test system: HCT-15 colon
OVCAR-4 ovarian = test system: OVCAR-4 ovarian
SNB-19 CNS = test system: SNB-19 CNS
SR leukemia = test system: SR leukemia
IGROV1 ovarian = test system: IGROV1 ovarian
KM12 colon = test system: KM12 colon
NCI-H522 lung = test system: NCI-H522 lung
A549 NSCLC = test system: A549 NSCLC
OVCAR-5 ovarian = test system: OVCAR-5 ovarian
RPMI-8226 leukemia = test system: RPMI-8226 leukemia
EKVX NSCLC = test system: EKVX NSCLC
SF-539 CNS = test system: SF-539 CNS
TK-10 renal = test system: TK-10 renal
HCC-2998 colon = test system: HCC-2998 colon
UO-31 renal = test system: UO-31 renal
MDA-N = test system: MDA-N
MOLT-4 leukemia = test system: MOLT-4 leukemia
CCRF-CEM leukemia = test system: CCRF-CEM leukemia
SW-620 colon = test system: SW-620 colon
SK-MEL-28 melanoma = test system: SK-MEL-28 melanoma
K-562 leukemia = test system: K-562 leukemia
LOX IMVI melanoma = test system: LOX IMVI melanoma
SK-OV-3 ovarian = test system: SK-OV-3 ovarian
M14 melanoma = test system: M14 melanoma
COLO 205 colon = test system: COLO 205 colon
HL-60(TB) leukemia = test system: HL-60(TB) leukemia
U251 CNS = test system: U251 CNS
MDA-MB-231 breast = test system: MDA-MB-231 breast
BT-549 breast = test system: BT-549 breast
HOP-92 NSCLC = test system: HOP-92 NSCLC
SF-295 CNS = test system: SF-295 CNS
786-0 renal = test system: 786-0 renal
A498 renal = test system: A498 renal
ACHN renal = test system: ACHN renal
SK-MEL-2 melanoma = test system: SK-MEL-2 melanoma
SNB-75 CNS = test system: SNB-75 CNS
CAKI-1 renal = test system: CAKI-1 renal
SN12C renal = test system: SN12C renal
NCI-H23 lung = test system: NCI-H23 lung
PC-3 prostate = test system: PC-3 prostate
HOP-62 NSCLC = test system: HOP-62 NSCLC
NCI-H460 lung = test system: NCI-H460 lung
DU-145 prostate = test system: DU-145 prostate
MDA-MB-435 = test system: MDA-MB-435

Measured: TGI

C[C@H](CCC(=O)O)[C@H]1CC[C@H]2[C@@H]3[C@@H](O)C[C@@H]4C[C@H](O)CC[C@]4(C)[C@H]3CC[C@]12C
> 100 µM: all assays above
